According to patent US7153979B2, “Triterpene derivatives and remedies for liver diseases” (Meiji Seika Kaisha, Ltd., priority 1996, dated 2006):

Test system: hepatitis induced by concanavalin A in mice
Experiment: Concanavalin A (Con A) hepatitis model, plasma ALT
Format: in vivo, BALB/c male mice
Conditions: 24 hr after Con A, control group 2068±518
Protocol: Effect in Concanavalin A (Con A) Hepatitis Model
Con A dissolved in physiological saline was intravenously administered at a dose of 20 mg/kg to BALB/c male mice (8 weeks in age) having a body weight of 21 to 25 g to induce hepatitis. A test compound (compound 7) was suspended in a mixed solution (control vehicle) composed of 25% dimethylsufoxide, 25% polyethylene glycol 400, and 0.25% carboxymethyl cellulose, and the suspension was subcutaneously administered 2 hr and 14 hr before the administration of Con A at three levels of dose, i.e., 0.2 mg/mouse, 1.0 mg/mouse, and 2.0 mg/mouse. A control vehicle alone was administered to a group of control mice. Twenty four hr after the administration of Con A, the mice were sacrificed under ether anesthesia to assay the alanine aminotransferase (ALT) activity, in plasma, as an index of hepatopathy.

Q: What does the source list for `CC1(C)C[C@H]2C3=CC[C@@H]4[C@@]5(C)CC[C@H](O)[C@](C)(CO)[C@@H]5CC[C@@]4(C)[C@]3(C)CC[C@@]2(C)[C@H](O)[C@@H]1O` [Compound 7, Soyasapogenol A]?
A: alanine aminotransferase (ALT) activity in plasma (1.0 mg/mouse subcutaneously 2 hr and 14 hr before Con A 20 mg/kg i.v.): 55±16 u/l; alanine aminotransferase (ALT) activity in plasma (2.0 mg/mouse subcutaneously 2 hr and 14 hr before Con A 20 mg/kg i.v.): 55±16 u/l
